# Test results reported in patent publication US10493045B2, “Method for treating alcohol dependence or alcohol abuse” (priority 2016, dated 2019).
# Values joined by “and” are separate entries in the source; they are usually repeats but may differ in a detail not shown here. Equal entries are not always repeated.
# What was measured:
# alcohol use = settings: up to 40 mg/day of memantine; cited from earlier work
# post-dependent (PD) rats = settings: injection 25 mg/kg; cited from earlier work
# [1] = test system: BD-II patients with comorbid alcohol dependence; experiment: 12-week open-label low-dose add-on memantine treatment: clinical severity (HDRS, YMRS) and alcohol use; assay type: in vivo, human
# Text: BD-II patients with comorbid alcohol dependence were recruited from outpatient and inpatient settings in Taiwan. All patients were initially evaluated by an attending psychiatrist and then given a structural interview by a clinical psychologist to determine according to the Diagnostic and Statistical Manual of Mental Disorders, Fourth Edition, Text Revision (DSM-IV-TR), and the Chinese version of the Modified Schedule of Affective Disorder and Schizophrenia-Life Time (SADS-L) was used, which had good inter-rater reliability. Patients suffering from major mental illnesses other than BD-II and alcohol dependence and patients who had taken memantine within 1 week before the study began were excluded.
# (§1) Eligible patients were given low-dose (less than 5 mg/day) add-on memantine (5 mg/day) after an initial screening, with open-label valproic acid (VPA) treatment (500 or 1000 mg/day or […] in plasma) which had begun when they joined the study. The severity of mood symptoms was assessed by using the Hamilton Depression Rating Scale (HDRS) and the Young Mania Rating Scale (YMRS). Only patients with moderate mood symptoms (HDRS≥18 or YMRS≥14) were recruited. The exact amount of alcohol used by each patient was assessed by using the Chinese version of the Modified SADS-L. Symptom severity and alcohol use were assessed at baseline, and treatment responses were measured on day 7 of weeks 1, 2, 4, 8, and 12. Concomitant benzodiazepine medications (lorazepam<8 mg and chlordiazepoxide<240 mg) were used for nighttime sedation and withdrawal symptoms during the study. Up to 20 mg/day of fluoxetine was permitted for associated depressive symptoms, and 1-3 mg of risperidone was used for hypomanic symptoms.
# (§2) The intent to-treat (ITT) analysis set included all patients who had taken at least one dose of the studied drug, and had undergone one baseline assessment and at least one post-baseline assessment. All outcome variables—HDRS, YMRS, cytokine levels, plasma BDNF levels, and metabolic parameters—in the ITT set were analyzed. Missing data were filled in by using the last observation carried forward (LOCF) method.
# (§3) The overall within-group changes of each outcome over 12 weeks were analyzed by using generalized estimating equations (GEEs). The present invention ran 10 models and each outcome was deemed as a dependent variable. In each model, treatment duration, gender, and age were considered as independent variables. The covariance structure used was the autoregressive (AR [1]) model. The significance of change of each outcome over 12-week follow-up was represented by the variable “treatment duration.” Linear regression analysis was used to analyze correlations between changes in alcohol use and changes in cytokine and BDNF levels in 12 weeks. Changes in alcohol use were dependent variables, and changes in HDRS and YMRS scores, and in plasma cytokine and BDNF levels (controlled for gender, age, and baseline clinical severity) were independent variables. SPSS 22.0 for Windows was used for all statistical computations. Significance was set at p<0.05.
# [2] = Plasma memantine concentration in treated patients; assay type: in vivo, human; settings: patients given 5 mg/day of memantine
# [3] = test system: opioid-dependent patients undergoing methadone maintenance treatment; settings: add-on memantine; cited from earlier work
# [4] = test system: morphine-induced conditioned-place-preference behavior; settings: rats; low-dose 0.02 mg/kg; cited from earlier work
# [5] = test system: plasma TNF-α, CRP, TGF-β1, IL-8, IL-10, and BDNF; experiment: Plasma cytokine and BDNF levels by ELISA during 12-week add-on memantine treatment; assay type: in vivo, human
# Method: as §1
# Ten milliliters of whole blood was withdrawn from the antecubital vein of each patient when clinical severity was assessed: at baseline, and on day 7 of weeks 1, 2, 4, 8, and 12. Plasma, which was isolated from the whole blood after it had been centrifuged at 3000 g for 15 min at 4° C., was immediately stored at −80° C. The enzyme-linked immunosorbent assay was used to quantify the cytokine levels by ELISA reader (SpectraMax® M2e, Molecular Devices, USA). Sample processing and data analysis were done according to the manufacturer's instructions. The immunological parameters—plasma TNF-α, CRP, TGF-β1, IL-8, IL-10, and BDNF—were analyzed.
# as §2, §3
# NMDA receptors = settings: read-out: 50% inhibition concentration [IC50], block of NMDA receptors; cited from earlier work
smiles,measurement,setting,value
CC12CC3CC(C)(C1)CC(N)(C3)C2 [memantine],Alcohol use as compared to placebo,alcohol use,not significantly reduced
same,Alcohol drinking during acute withdrawal,post-dependent (PD) rats,reduced
same,Relapses of alcohol dependence after protracted abstinence,post-dependent (PD) rats,did not reduce
same,Patients who stopped drinking during the first week of memantine treatment,"[1]; 15 patients of 45, first week",33.3%
same,Patients who reduced their alcohol use to 0 unit after 12 weeks,"[1]; 22/26 patients, after 12 weeks",84.6%
same,"HDRS, mean at endpoint","[1]; BD-II patients with comorbid alcohol dependence, add-on memantine less than 5 mg/day plus VPA, endpoint 12 weeks, n = 26, baseline mean 14.4 (n = 45)",9.4
same,"Reduction of alcohol use after 12 weeks of treatment, all of the patients",[1]; after 12 weeks,> 50%
same,"YMRS, mean at endpoint","[1]; endpoint 12 weeks, n = 26, baseline mean 13.8 (n = 45)",9.4
same,"Alcohol use (unit), mean at endpoint","[1]; endpoint 12 weeks, n = 26, baseline mean 73.9 (n = 45)",11.8 unit
same,Plasma memantine concentrations,[2],10-50 ng/ml and 0.05-0.2 μM
same,Plasma tumor necrosis factor-α (TNF-α) levels,[3],significantly downregulates
same,Required methadone dose,[3],reduces
same,Transforming growth factor-β1 (TGF-β1) levels,[3],upregulates
same,Morphine-induced conditioned-place-preference behavior,[4],abolishes
same,"IL-10, mean at endpoint","[5]; endpoint 12 weeks, n = 26, baseline mean 2.09",1.92
same,"TNF-α, mean at endpoint","[5]; endpoint 12 weeks, n = 26, baseline mean 2.64",2.66
same,"IL-8, mean at endpoint","[5]; endpoint 12 weeks, n = 26, baseline mean 17.64",10.22
same,"CRP, mean at endpoint","[5]; endpoint 12 weeks, n = 26, baseline mean 2960.48",2382.29
same,"BDNF, mean at endpoint","[5]; endpoint 12 weeks, n = 26, baseline mean 16196.64",18910.46
same,"TGF-β1, mean at endpoint","[5]; endpoint 12 weeks, n = 26, baseline mean 30884.32",27653.85
same,Change in TGF-β1 over 12 weeks of treatment,"[5]; within-group change, GEE, p 0.080",−3586.37
same,Change in IL-10 over 12 weeks of treatment,"[5]; within-group change, GEE, p 0.605",−0.182
same,Change in TNF-α over 12 weeks of treatment,"[5]; within-group change, GEE, p 0.89",0.04
same,IC50,NMDA receptors,2 to 3 µM
